Data reported in article PMC8400257, “2-Phenoxy-3-Trichloromethylquinoxalines Are Antiplasmodial Derivatives with Activity against the Apicoplast of Plasmodium falciparum” (Pharmaceuticals, 2021).
Read-outs that look alike come from different tables or passages of the source.

Key:
[1] = test system: K1 chloroquine and pyrimethamine-resistant P. falciparum strain; experiment: In vitro antiplasmodial evaluation (SYBR Green I); assay type: cell-based, Plasmodium falciparum; details: for EC50: read-out: EC50 PfK1 (µM) ± SD; for SI (selectivity index): SI = CC50 HepG2/EC50 PfK1
Experimental: (§1) For all molecules, the selectivity index was calculated as following SI = CC50/EC50.
It was maintained in continuous culture, as described previously by Trager and Jensen. Cultures were maintained in fresh A+ human erythrocytes at 2.5% hematocrit in complete medium (RPMI 1640 with 25 mM HEPES, 25 mM NaHCO3, 10% of A+ human serum) at 37 °C under reduced O2 atmosphere (gas mixture 10% O2, 5% CO2, and 85% N2). Parasitemia was maintained daily between 1 and 3%. The P. falciparum drug susceptibility test was carried out by comparing quantities of DNA in treated and control cultures of parasite in human erythrocytes according to an SYBR Green I fluorescence-based method using a 96-well fluorescence plate reader. Compounds, previously dissolved in DMSO (final concentration less than 0.5% v/v), were incubated in a total assay volume of 200 μL (RPMI, 2% hematocrit and 0.4% parasitemia) for 72 h in a humidified atmosphere (10% O2 and 5% CO2) at 37 °C, in 96-well flat bottom plates. Duplicate assays were performed for each sample. After incubation, plates were frozen at […] for 24 h. Then, the frozen plates were thawed for 1 h at 37 °C. Fifteen µL of each sample were transferred to 96-well flat bottom non-sterile black plates (Greiner Bio-one, Kremsmünster, Austria), already containing 15 µL of the SYBR Green I lysis buffer (2X SYBR Green I, 20 mM Tris base pH 7.5, 20 mM EDTA, 0.008% w/v saponin, 0.08% w/v Triton X-100). […] Plates were incubated for 15 min at 37 °C and then read on a TECAN Infinite F-200 spectrophotometer with excitation and emission wavelengths at 485 and 535 nm, respectively.

[2] = In vitro cytotoxicity evaluation HepG2 (MTT); assay type: cell-based, human; details: human, CC50 HepG2 (µM) ± SD
Experimental: as §1
(§2) Triplicate assays were performed for each sample. Each plate-well was then microscopically examined for possible precipitate formation before the medium was aspirated from the wells. Next, 100 µL of MTT (3-(4,5-dimethyl-2-thiazolyl)-2,5-diphenyl -2H-tetrazolium bromide) solution (0.5 mg/mL in medium without FBS) was added to each well. […] After this time, the MTT solution was removed and DMSO (100 μL) was added to dissolve the resulting blue formazan crystals. Plates were shaken vigorously (700 rpm) for 10 min. The absorbance was measured at 570 nm with 630 nm as reference wavelength using a BIO-TEK ELx808 Absorbance Microplate Reader (LabX, Midland, ON, Canada). DMSO was used as blank and doxorubicin (purchased from Sigma Aldrich) as positive control. Cell viability was calculated as a percentage of control (cells incubated without compound). […] CC50 values to represent the mean value calculated from three independent experiments.

[3] = Aqueous solubility in the cell culture medium; assay type: physicochemical
Experimental: It appeared that the cluttered derivatives (3q, 3s) and the 2-chlorophenoxy derivative (3b) were the less cytotoxic compounds.
The HepG2 cell line was maintained at 37 °C, 5% CO2, at 90% humidity in MEM supplemented with 10% fetal bovine serum, 1% L-glutamine (200 mM), and penicillin (100 U/mL)/streptomycin (100 μg/mL) (complete RPMI medium). The cytotoxicity of the tested molecules on the HepG2 (hepatocarcinoma cell line purchased from ATCC, ref HB-8065) cell line was assessed according to the method of Mosmann with slight modifications. Briefly, 5.10^3 cells in 100 μL of complete medium were inoculated into each well of 96-well plates and incubated at 37 °C in humidified 5% CO2. After 24 h incubation, 100 μL of medium with various product concentrations dissolved in DMSO (final concentration less than 0.5% v/v) were added and the plates were incubated for 72 h at 37 °C. Triplicate assays were performed for each sample. Each plate-well was then microscopically examined for possible precipitate formation before the medium was aspirated from the wells. Next, 100 µL of MTT (3-(4,5-dimethyl-2-thiazolyl)-2,5-diphenyl -2H-tetrazolium bromide) solution (0.5 mg/mL in medium without FBS) was added to each well. Cells were incubated for 2 h at 37 °C. After this time, the MTT solution was removed and DMSO (100 μL) was added to dissolve the resulting blue formazan crystals. Plates were shaken vigorously (700 rpm) for 10 min. The absorbance was measured at 570 nm with 630 nm as reference wavelength using a BIO-TEK ELx808 Absorbance Microplate Reader (LabX, Midland, ON, Canada). DMSO was used as blank and doxorubicin (purchased from Sigma Aldrich) as positive control. Cell viability was calculated as a percentage of control (cells incubated without compound). […] CC50 values to represent the mean value calculated from three independent experiments.

[4] = test system: HepG2 human hepatocyte cell line; experiment: In vitro cytotoxicity evaluation HepG2 (MTT); assay type: cell-based
Experimental: as §1, §2

[5] = Plasmodium falciparum, K1, 72 h, K1 strain, 72 h incubation, three independent experiments
[6] = K1 strain, 72 h incubation, three independent experiments

Compound | melting point [°C] | EC50 [1, 5] [µM] | SI (selectivity index) [1] | CC50 at 72 h [2] [µM] | Aqueous solubility in the cell culture medium [3] | EC50 [1, 6] [µM] | CC50 [4] [µM] | EC50 ([1]; Plasmodium falciparum, K1, 72 h) [µM] | CC50 ([4]; human, 72 h) [µM]
FC(F)(F)c1ccc(Oc2nc3ccccc3nc2C(Cl)(Cl)Cl)cc1 [3j, 2-Trichloromethyl-3-[4-(trifluoromethyl)phenoxy]quinoxaline] | 129 | 0.3 ± 0.06 | 94.3 | 28.3 ± 4.4 | – | – | – | – | –
ClC(Cl)(Cl)c1nc2ccccc2nc1Oc1ccc(-c2ccccc2)cc1 [3s, 2-([1,1′-Biphenyl]-4-yloxy)-3-trichloromethylquinoxaline] | 160 | 0.6 ± 0.1 | >104.2 | > 62.5 | poor aqueous solubility | – | – | – | –
O=[N+]([O-])c1ccc(Oc2nc3ccccc3nc2C(Cl)Cl)cc1 [3w, 2-Dichloromethyl-3-(4-nitrophenoxy)quinoxaline] | 112 | > 16 | – | – | – | – | – | – | –
N=S(=O)(c1ccc(Oc2nc3ccccc3nc2C(Cl)(Cl)Cl)cc1)C(F)(F)F (stereo not drawn) [3p, 2-Trichloromethyl-3-[4-(S-trifluoromethylsulfonimidoyl)phenoxy]quinoxaline] | 127 | 0.21 ± 0.05 | 31.0 | 6.5 ± 1.4 | – | – | – | – | –
ClC(Cl)(Cl)c1nc2ccccc2nc1Oc1cccc(-c2ccccc2)c1 [3t, 2-([1,1′-Biphenyl]-3-yloxy)-3-trichloromethylquinoxaline] | – | 0.5 ± 0.05 | >62.5 | > 31.2 | poor aqueous solubility | – | – | – | –
O=S(=O)(c1ccc(Oc2nc3ccccc3nc2C(Cl)(Cl)Cl)cc1)C(F)(F)F [3o, 2-Trichloromethyl-3-[4-(trifluoromethylsulfonyl)phenoxy]quinoxaline] | 107 | 0.22 ± 0.07 | 32.7 | 7.2 ± 1.4 | – | – | – | – | –
COc1cccc2c1C(=O)c1c(O)c3c(c(O)c1C2=O)C[C@@](O)(C(=O)CO)C[C@@H]3O[C@H]1C[C@H](N)[C@H](O)[C@H](C)O1 [Doxorubicin, reference compound] | – | – | – | 0.2 | – | – | – | – | –
Fc1ccc(Oc2nc3ccccc3nc2C(Cl)(Cl)Cl)cc1 [3g, 2-(4-Fluorophenoxy)-3-trichloromethylquinoxaline] | 56 | 0.42 ± 0.09 | 85.5 | 35.9 ± 7.5 | – | – | – | – | –
Fc1cccc(Oc2nc3ccccc3nc2C(Cl)(Cl)Cl)c1 [3f, 2-(3-Fluorophenoxy)-3-trichloromethylquinoxaline] | 101 | 0.32 ± 0.07 | 105.0 | 33.5 ± 6.3 | – | – | – | – | –
O=[N+]([O-])c1ccc(Oc2nc3ccccc3nc2C(F)(F)F)cc1 [3v, 2-(4-Nitrophenoxy)-3-trifluoromethylquinoxaline] | 125 | > 25 | – | – | – | > 16 | – | – | –
O=[N+]([O-])c1ccc(Oc2cnc3ccccc3n2)cc1 [3u, 2-(4-Nitrophenoxy)quinoxaline] | 156 | > 25 | – | – | – | > 16 | – | – | –
2-(Naphthalen-1-yloxy)-3-trichloromethylquinoxaline [3r] | – | – | – | – | poor aqueous solubility | 0.4 ± 0.08 | > 31.2 | – | –
2-(Naphthalen-2-yloxy)-3-trichloromethylquinoxaline [3q] | – | – | – | – | – | 0.6 ± 0.1 | 53.1 ± 7.6 | – | –
Fc1ccccc1Oc1nc2ccccc2nc1C(Cl)(Cl)Cl [3e, 2-(2-Fluorophenoxy)-3-trichloromethylquinoxaline] | 138 | 0.64 ± 0.14 | >24.4 | > 15.6 | poor aqueous solubility | – | – | – | –
ClC(Cl)(Cl)c1nc2ccccc2nc1Oc1ccccc1 [3a, 2-Phenoxy-3-trichloromethylquinoxaline] | 59 | 0.47 ± 0.1 | 96.4 | 45.3 ± 9.6 | – | – | – | – | –
Clc1ccc(Oc2nc3ccccc3nc2C(Cl)(Cl)Cl)c(Cl)c1 [3d, 2-(2,4-Dichlorophenoxy)-3-trichloromethylquinoxaline] | 120 | 0.6 ± 0.12 | 62.8 | 37.7 ± 4.7 | – | – | – | – | –
Clc1cccc(Oc2nc3ccccc3nc2C(Cl)(Cl)Cl)c1 [3c] | 58 | 0.34 ± 0.06 | 109.4 | 37.2 ± 8.1 | – | – | – | – | –
FC(F)(F)Sc1ccc(Oc2nc3ccccc3nc2C(Cl)(Cl)Cl)cc1 [3m, 2-Trichloromethyl-3-[4-(trifluoromethylthio)phenoxy]quinoxaline] | 94 | 0.2 ± 0.04 | 128.0 | 25.6 ± 4.6 | – | – | – | – | –
CCN(CC)CCCC(C)Nc1ccnc2cc(Cl)ccc12 (stereo not drawn) [Chloroquine, reference compound] | – | – | – | – | – | – | – | 0.8 | –
FS(F)(F)(F)(F)c1ccc(Oc2nc3ccccc3nc2C(Cl)(Cl)Cl)cc1 [3l, 2-Trichloromethyl-3-[4-(pentafluorosulfanyl)phenoxy]quinoxaline] | 99 | 0.2 ± 0.03 | 83.0 | 15.4 | – | – | – | – | 16.6 ± 3.9
C[C@H]1c2cccc(O)c2C(=O)C2=C(O)[C@]3(O)C(=O)C(C(N)=O)=C(O)[C@@H](N(C)C)[C@@H]3[C@@H](O)[C@@H]21 [Doxycycline, reference compound] | – | 6 | 3.3 | 20 | – | – | – | – | –
N#Cc1ccc(Oc2nc3ccccc3nc2C(Cl)(Cl)Cl)cc1 [3n, 4-[(3-Trichloromethylquinoxalin-2-yl)oxy]benzonitrile] | 194 | 0.2 | – | 16.6 | – | – | – | – | 15.4 ± 2.1
FC(F)(F)Oc1ccc(Oc2nc3ccccc3nc2C(Cl)(Cl)Cl)cc1 [3k, 2-Trichloromethyl-3-[4-(trifluoromethoxy)phenoxy]quinoxaline] | 66 | 0.4 ± 0.08 | 67.8 | 27.1 ± 4.7 | – | – | – | – | –
COc1ccc(Oc2nc3ccccc3nc2C(Cl)(Cl)Cl)cc1 [3h, 2-(4-Methoxyphenoxy)-3-trichloromethylquinoxaline] | 171 | 0.38 ± 0.08 | >20.6 | > 7.8 | poor aqueous solubility | – | – | – | –
Clc1ccccc1Oc1nc2ccccc2nc1C(Cl)(Cl)Cl [3b, 2-(2-Chlorophenoxy)-3-trichloromethylquinoxaline] | 99 | 0.55 ± 0.12 | 90.0 | 49.5 ± 10.1 | – | – | – | – | –
C[C@H]1[C@H](OC(=O)CCC(=O)O)O[C@@H]2O[C@@]3(C)CC[C@H]4[C@H](C)CC[C@@H]1[C@@]24OO3 [Artesunate, reference compound] | – | 0.003 ± 0.0012 | 4900 | 14.7 ± 1.4 | – | – | – | – | –
